Molecular target: human active recombinant p38α-6His tagged (Homo sapiens, UniProt Q16539)
Test: P38 Alpha Enzyme Assay (AlphaScreen, biotinylated-ATF2 substrate);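 further: 0.5 nM final p38α, reaction started with ATP and run 45 min at 37 °C, phospho-ATF2 read by antibody-based AlphaScreen, background wells quenched with EDTA before ATP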
Format: biochemical
Details: p38 alpha enzyme inhibition; means of replicate determinations; 4 h pre-incubation at 37° C.; SD of assay 0.2-0.3 log units

Chain of human active recombinant p38α-6His tagged (Q16539 whole entry): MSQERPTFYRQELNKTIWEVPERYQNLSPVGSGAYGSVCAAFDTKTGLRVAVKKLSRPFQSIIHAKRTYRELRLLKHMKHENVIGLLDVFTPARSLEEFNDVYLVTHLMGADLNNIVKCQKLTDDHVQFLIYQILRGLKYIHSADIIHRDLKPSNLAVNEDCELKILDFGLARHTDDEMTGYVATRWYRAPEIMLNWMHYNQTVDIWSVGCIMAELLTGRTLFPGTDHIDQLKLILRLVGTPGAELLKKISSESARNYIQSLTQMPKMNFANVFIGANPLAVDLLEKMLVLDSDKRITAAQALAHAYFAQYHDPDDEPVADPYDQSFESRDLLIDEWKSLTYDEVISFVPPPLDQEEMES

| pIC50 | Compound |
| --- | --- |
| 9 | CCONC(=O)c1ccc(C)c(-n2ccnc(NC(C)(C)c3ccccc3OCCNC)c2=O)c1 [Example 222, N-Ethoxy-4-methyl-3-[3-[[1-methyl-1-[2-[2-(methylamino)ethoxy]phenyl]ethyl]amino]-2-oxo-1(2H)-pyrazinyl]-benzamide] |
| 6.5 | Cc1ccc(C(=O)NC2CC2)cc1-n1ccnc(NCCCN2CCOCC2)c1=O [Example 6, N-Cyclopropyl-4-methyl-3-[3-[[3-(4-morpholinyl)propyl]amino]-2-oxo-1(2H)-pyrazinyl]-benzamide] |
| 10.4 | Cc1c(F)cc(C(=O)NC2CC2)cc1-n1ccnc(NC(C)(C)c2ccccc2OCCNC[C@H](C)O)c1=O [Example 258, N-Cyclopropyl-3-fluoro-5-[3-[[1-[2-[2-[[(2S)-2-hydroxypropyl]amino]ethoxy]phenyl]-1-methylethyl]amino]-2-oxo-1(2H)-pyrazinyl]-4-methyl-benzamide] |
| 8.2 | CCNCCOc1ccccc1C1(Nc2nccn(-c3cc(C(=O)NC4CC4)c(F)cc3C)c2=O)CC1 [Example 318, N-cyclopropyl-5-{3-[(1-{2-[2-(ethylamino)ethoxy]phenyl}cyclopropyl)amino]-2-oxopyrazin-1(2H)-yl}-2-fluoro-4-methylbenzamide] |
| 8.9 | Cc1ccc(C(=O)NC2CC2)cc1-n1ccnc(NC(C)(C)c2ccccc2OCCCNCC(F)(F)F)c1=O [Example 207, N-Cyclopropyl-4-methyl-3-[3-[[1-methyl-1-[2-[3-[(2,2,2-trifluoroethyl)amino]propoxy]phenyl]ethyl]amino]-2-oxo-1(2H)-pyrazinyl]-benzamide] |
| 6.2 | Cc1ccc(C(=O)NC2CC2)cc1-n1ccnc(NCc2cnc3ccccc3c2)c1=O [Example 28, N-Cyclopropyl-4-methyl-3-[2-oxo-3-[(3-quinolinylmethyl)amino]-1(2H)-pyrazinyl]-benzamide] |
| 8.1 | CNCCOc1ccccc1C1(Nc2nccn(-c3cc(C(=O)NC4CC4)c(F)cc3C)c2=O)CC1 [Example 319, N-Cyclopropyl-2-fluoro-4-methyl-5-{3-[(1-{2-[2-(methylamino)ethoxy]phenyl}cyclopropyl)amino]-2-oxopyrazin-1(2H)-yl}benzamide] |
| 10.3 | Cc1ccc(C(=O)NC2CC2)cc1-n1ccnc(NC2(c3ccccc3OCCNC(C)C)CC2)c1=O [Example 234, N-Cyclopropyl-4-methyl-3-[3-[[1-[2-[2-[(1-methylethyl)amino]ethoxy]phenyl]cyclopropyl]amino]-2-oxo-1(2H)-pyrazinyl]-benzamide] |
| 9.9 | Cc1ccc(C(=O)NC2CC2)cc1-n1ccnc(NC2(c3ccccc3OCCNC(C)C)CCC2)c1=O [Example 271, N-Cyclopropyl-4-methyl-3-[3-[[1-[2-[2-[(1-methylethyl)amino]ethoxy]phenyl]cyclobutyl]amino]-2-oxo-1(2H)-pyrazinyl]-benzamide] |
| 8.8 | Cc1ccc(C(=O)NC2CC2)cc1-n1ccnc(N[C@@H](c2ccccc2)[C@@H](C)CNC2CCNCC2)c1=O [Example 195, N-Cyclopropyl-4-methyl-3-[3-[[(1R,2S)-2-methyl-1-phenyl-3-(4-piperidinylamino)propyl]amino]-2-oxo-1(2H)-pyrazinyl]-benzamide] |
| 9.5 | CCNCCOc1ccccc1C(C)(C)Nc1nccn(-c2cc(C(=O)NC3CC3)ccc2Cl)c1=O [Example 333, 4-Chloro-N-cyclopropyl-3-[3-[(1-{2-[2-(ethylamino)ethoxy]phenyl}-1-methylethyl)amino]-2-oxopyrazin-1(2H)-yl]benzamide] |
| 8.9 | Cc1ccc(C(=O)NC2CC2)cc1-n1ccnc(N[C@@H](c2ccccc2)[C@@H](C)CN2CCC(C)CC2)c1=O [Example 170, N-Cyclopropyl-4-methyl-3-[3-[[(1R,2S)-2-methyl-3-(4-methyl-1-piperidinyl)-1-phenylpropyl]amino]-2-oxo-1(2H)-pyrazinyl]-benzamide] |
